Measurements: patent US20250108064A1, “PHOSPHATE PRODRUGS OF CANNABINOIDS” (priority 2021, published 2025)

Legend:
Type in all cases: in vitro ADME
[1] = Simulated Gastric Fluid stability assay; conditions: simulated gastric fluid (SGF) with pepsin, pH 1.2; SGF pH about 1.2 with pepsin, 37° C.; read-out: T½ in SGF (converted)
Protocol: General Experimental: Simulated Gastric Fluid (SGF) is a pH 1.2 HCl solution with purified pepsin (800-2500 units of activity) (Test Solutions, The United States Pharmacopoeia (USP), 2008). SGF was prepared according to a procedure described in Test Solution—USP and other published articles (Bioorganic Chemistry, 49 (2013), 40-48). Sodium chloride 0.20 g and purified pepsin 0.32 g (Sigma), derived from porcine stomach mucosa with an activity of 800 to 2500 units per mg of protein, were dissolved in 0.70 mL hydrochloric acid and sufficient water to make 100 mL. […] The SGF solution prepared was used for in vitro studies to evaluate the prodrug stability.
At specified time intervals, aliquots (100 μL) were withdrawn and added to pre-cooled 100% acetonitrile (200 μL spiked with ISTD) and mixed well by vortex mixing for 2 min. The mixture was centrifuged at 13000 rpm for 15 min at 4° C.

[2] = Liver microsome stability assay (HLM); conditions: human, microsomes, pH 7.4; 3 μM test compound, NADPH; read-out: T½ in HLM
Method in brief: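 Compound (3 μM) incubated with human or mouse liver microsomes in 100 mM phosphate pH 7.4, started with NADPH; minus-NADPH controls included. Samples taken at 0, 5, 10, 15 and 30 min, quenched in cold methanol and analysed by LC-MS/MS. T1/2 = 0.693/k from ln % remaining vs time.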

[3] = Brain homogenate stability assay; conditions: mouse brain homogenate, 37° C.
From the text: General Experimental: Purchases were made for DPBS (1X) (Gibco) and Pierce BCA Assay kit for protein quantification (Thermo Fischer). Frozen mouse brain homogenate was provided by Dr. Scott Myers at Emory University School of Medicine (C57BL/6J adult male mice (Jackson Laboratory), 239 days (34 weeks) old). Briefly, each mouse was euthanized via isoflurane overdose and immediately upon cessation of breathing the chest cavity was opened and the left ventricle punctured with a 21G needle, the vena cava was then clipped and the body perfused with cold PBS (pH 7.35) for 2 min. Following, the brain was removed (on ice) and the forebrain separated from the cerebellum. The forebrain wet weight was recorded and placed into 3 mL ice cold HBSS (Hank's Balanced Salt Solution, pH 7.4), and then homogenized for 10 secs at 3/4 max setting. […] The amount of protein in the mouse brain homogenate was quantified using the Pierce BCA assay kit before running the stability assay.
Procedure for Brain Homogenate Stability Assay: 10 mM stock solution was prepared in 100% DMSO for each test compound. […] The supernatant was transferred into the HPLC vials, and measured by LC-MS/MS. Half-life (T1/2) was calculated using the data obtained from LC-MS/MS and by plotting ln (% remaining of the parent prodrug) versus time and performing linear regression to determine slope. […]

For `C=C(C)[C@@H]1CCC(C)=C[C@H]1c1c(O)cc(CCCCC)cc1OC(=O)C1(OP(=O)(O)O)CC1.N.N` [7b, 1-((((1′R,2′R)-6-hydroxy-5′-methyl-4-pentyl-2′-(prop-1-en-2-yl)-1′,2′,3′,4′-tetrahydro-[1,1′-biphenyl]-2-yl)oxy)carbonyl)cyclopropyl phosphate di-ammonium salt], the half-life at 2 mM [1] was > 3 h, the half-life [2] was 2.62 h and the “brain homogenate stability (metabolism and metabolite formation)” value [3] was “metabolism of compound 7b and formation of CBD”.
